The target of one assay is MMP-13 (Homo sapiens, UniProt P45452). Nature of the assay: In-vitro fluorescence assay of MMP-13 activity. The format is biochemical. As for the experimental part: See Knight, C. […] […].
The method was essentially the same as for the determination of MMP-1 activity, described above, except that the final concentration of purified MMP in the assay was 0.5 nM, prepared by diluting with the assay buffer.

The target in another assay is T1, recombinant human MMP-2 (Homo sapiens, UniProt P08253).
T1 sequence (P08253 110-660): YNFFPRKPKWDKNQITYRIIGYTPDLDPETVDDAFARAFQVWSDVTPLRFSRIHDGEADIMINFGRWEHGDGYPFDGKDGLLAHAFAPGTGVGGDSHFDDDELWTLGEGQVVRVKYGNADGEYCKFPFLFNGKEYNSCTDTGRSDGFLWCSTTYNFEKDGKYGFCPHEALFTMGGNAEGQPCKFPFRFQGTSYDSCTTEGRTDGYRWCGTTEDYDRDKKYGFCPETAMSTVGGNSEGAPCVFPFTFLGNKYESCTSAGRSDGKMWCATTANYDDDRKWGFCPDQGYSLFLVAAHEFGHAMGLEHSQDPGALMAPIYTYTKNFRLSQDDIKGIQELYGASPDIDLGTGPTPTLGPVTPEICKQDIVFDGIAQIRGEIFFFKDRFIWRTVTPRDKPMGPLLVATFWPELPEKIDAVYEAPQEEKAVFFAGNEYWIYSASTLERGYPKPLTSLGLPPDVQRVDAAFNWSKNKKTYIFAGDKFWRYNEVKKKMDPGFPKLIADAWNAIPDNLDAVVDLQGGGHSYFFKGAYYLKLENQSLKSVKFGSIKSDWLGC
Nature of the assay: In-vitro fluorescence assay of MMP-2 activity. The format is biochemical.

For assay [1], the target named is T2, TACE (catalytic domain of the recombinant TACE protein) (Homo sapiens, UniProt P78536).
T2 construct: The catalytic domain of the recombinant TACE protein was expressed and purified; made in house
Nature of the assay: TACE FRET assay using TACE Cat. The format is biochemical. Particulars: pro-TNF-α substrate peptide. As for the experimental part:
The procedure is essentially as described in Jin, G. et al., Analytical Biochemistry (2002) 302, 269-275, incorporated by reference herein in its entirety. […] K is the IC50. Generally, n and B are floated, noting that n (hill slope) should be close to 1 and B (background offset) to 0.
Pro-TNF-α substrate peptide Abz-[…]-Dpa (AnaSpec, San Jose, Calif., WARC-1) was prepared as a 2 mM stock solution in the TACE assay buffer (50 mM Tris-HCI, pH 7.4, 25 mM NaCl, 4% Glycerol, 0.005% Brij 35). The catalytic domain of the recombinant TACE protein was expressed and purified. The TACE protein (1 ug/ml) was pretreated with the inhibitors at various concentrations for 10 min at room temperature. The reaction was initiated by the addition of the substrate peptide. The increase in fluorescence was monitored at an Excitation of 320 nm and an Emission of 420 nm over a period of 10 min. The initial rate (slope) of the reaction was determined using a fluorescence plate reader (Molecular Devices, Spectra Max Gemini XS).

The subject of assay [2] is LPS-induced TNF-α secretion in human whole blood. The experiment in a line: Human whole blood assay for LPS-induced TNF-α secretion. Particulars: Homo sapiens, LPS 100 ng/ml, read-out: TNF Secretion HWB IC50. The format is cell-based. As for the experimental part: procedure is essentially as described in Newton, R. C., et al., (2001) Ann Rheum […]32, incorporated by reference herein in its entirety. The basic measurement of the assay is the percentage of inhibition of TNF-α secretion and the IC50 determination by a […] model-39 of LSW data analysis tool. 350 μl of fresh human blood drawn from healthy volunteers were pre-incubated with compounds for one hour at the various concentrations at 37° C. with turning generally, the final DMSO concentrations should be kept below 0.2%. At the end of cubation, LPS (Sigma, L2262) was added to the blood at 100 ng/ml and the samples were further incubated for 4 hours or overnight at 37° C. with constant rotation. At the end of the incubation period, 650 μl of serum-free medium was added to the blood samples and the samples were centrifuged at 1500 rpm for 15 minutes. 500 μl of supernate was collected and frozen at -80° C. The TNF-α and other proinflammatory cytokines were detected by ELISA assay according to the manufacturer's instruction (Biosource International, Inc., Camarillo, Calif.).

Assay [3] concerns TNF-α secretion in Raw 264.7 cells. Nature of the assay: Cell-based assay for inhibition of TNF-α secretion in Raw cells. Particulars: Mus musculus, RAW264.7, LPS 100 ng/ml, 4 hr. As for the experimental part: The basic measurement of the assay is the percentage of inhibition of TNF-α secretion and the IC50 determination by a fitting with the model-39 of LSW data analysis tool. […] Cells are split twice a week by scraping and 1 to 10 or 20 dilutions. For testing compounds, cells are cultured to confluence and are seeded the day before the experiment in 24 well culture dishes at 0.5 to 1 million/ml well. On the next morning, the medium from the overnight culture is replaced with the fresh growth medium. The compounds are added at various concentration at the 0.2% of final DMSO concentrations (10 μl of a 20% DMSO solution containing testing compounds is added to each well). The cells are pre-incubated with compounds for 1 hr. LPS (Sigma, L2262) is added to cells at a final concentration of 100 ng/ml (10 μl of a […] LPS solution freshly diluted from a 1 mg/ml LPS stock solution in PBS is added to each well) and cells are further incubated for 4 hr at 37° C. 1 ml of the supernatant was collected, cells are spun down and the supernatants are frozen at −80° C. until use. The TNF-α and other proinflammatory cytokines were detected by an ELISA assay according to the manufacturer's instructions (Biosource International, Inc., Camarillo, Calif. (For IL-1b measurement in Raw cells, one round of freeze and thaw of the cells was required).

Read-outs that look alike come from different tables or passages of the source. Where only a bound is given, the exact number is not on record here.

T2 sequence (P78536 223-474 limits assumed): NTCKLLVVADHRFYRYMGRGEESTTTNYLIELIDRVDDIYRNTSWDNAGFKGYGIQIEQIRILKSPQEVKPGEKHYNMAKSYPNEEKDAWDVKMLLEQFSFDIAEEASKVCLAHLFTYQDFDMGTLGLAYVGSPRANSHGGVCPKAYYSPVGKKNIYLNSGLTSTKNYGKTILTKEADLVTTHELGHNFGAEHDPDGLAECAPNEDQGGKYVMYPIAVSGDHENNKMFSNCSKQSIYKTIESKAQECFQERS
Method for recombinant human MMP-2: A continuous assay was used in which the substrate is a synthetic peptide containing a fluorescent group (7-methoxycoumarin; Mca) that is quenched by energy transfer to a 2,4-dinitrophenyl group. […] The substrate used was Mca-PQGL-(3-[2,4-dinitrophenyl]-L-2,3-diaminopropionyl)-AR-OH (denoted as Wammp-5, custom synthesized by AnaSpec, Inc.). The assay buffer consisted of 50 mM Hepes (pH 7.4), 100 mM NaCl, 5 mM CaCI2, and 0.005% Brij-35. Each well of black polystyrene 96-well plates contained a 200 μL reaction mixture consisting of assay buffer, purified MMP (final concentration of 25 ng/ml, prepared by diluting with the assay buffer), and varied concentrations of inhibitor (prepared by serially diluting a given inhibitor in DMSO in 96-well polypropylene plate). […] The enzymatic reactions were initiated by adding the substrate to a final concentration of 20 μM, and mixing 10 times with a pipette. The final DMSO concentration in the assay was 6.0%.
Plots of the inhibitor concentration vs. the percent inhibition were fit to the following equation: y=(a−d)/[1+(x/c)^b]+d, a general sigmoidal curve with Hill slope, a to d. x is the inhibitor concentration under test. y is the percent inhibition. a is the limiting response as x approaches zero. As x increases without bound, y tends toward its limit d. c is the inflection point (IC50) for the curve. That is, y is halfway between the lower and upper asymptotes when x=c. b is the slope factor or Hill coefficient.

As a reminder, the IC50 is the concentration that gives 50% inhibition. Regarding `Cc1cc(COc2ccc(S(=O)(=O)N[C@H]3[C@@H](C(=O)NO)[C@@H]4CC[C@H]3O4)cc2)c2ccccc2n1` (relative stereo) [Example 2, exo-N-Hydroxy-3-[({4-[(2-methylquinolin-4-yl)methoxy]phenyl}sulfonyl)amino]-7-oxabicyclo[2.2.1]heptane-2-carboxamide], the IC50 against MMP-13 was greater than 16.7 µM; at recombinant human MMP-2, greater than 16.7 µM; in assay [1] (FRET, read-out: TACE IC50), 0.0022 µM; in assay [2], 9.9 µM.
Consider `Cc1cc(COc2ccc(S(=O)(=O)N[C@@H]3[C@@H]4CC[C@@H](C4)[C@@H]3C(=O)NO)cc2)c2ccccc2n1` (relative stereo) [Example 6, endo-N-Hydroxy-3-[({4-[(2-methylquinolin-4-yl)methoxy]phenyl}sulfonyl)amino]bicyclo[2.2.1]heptane-2-carboxamide], for which the IC50 on MMP-13 was greater than 16.7 µM; at recombinant human MMP-2 it was greater than 16.7 µM; in assay [1] (FRET, read-out: TACE IC50), 0.001 µM; in assay [2], 47 µM.
`Cc1cc(COc2ccc(S(=O)(=O)N[C@H]3[C@@H](C(=O)NO)[C@H]4C=C[C@@H]3C4)cc2)c2ccccc2n1` (relative stereo) [Example 7, endo-N-Hydroxy-3-[({4-[(2-methylquinolin-4-yl)methoxy]phenyl}sulfonyl)amino]bicyclo[2.2.1]hept-5-ene-2-carboxamide]: the IC50 is greater than 16.7 µM against MMP-13; greater than 16.7 µM at recombinant human MMP-2; 0.0012 µM in assay [1] (FRET, read-out: TACE IC50); 34 µM in assay [2].
Regarding `Cc1cc(COc2ccc(S(=O)(=O)N(C)[C@H]3[C@@H](C(=O)NO)[C@H]4C=C[C@@H]3C4)cc2)c2ccccc2n1` (relative stereo) [Example 8, endo-N-Hydroxy-3-[methyl({4-[(2-methylquinolin-4-yl)methoxy]phenyl}sulfonyl)amino]bicyclo[2.2.1]hept-5-ene-2-carboxamide], the IC50 on MMP-13 is greater than 16.7 µM; on recombinant human MMP-2, greater than 16.7 µM; in assay [1] (FRET, read-out: TACE IC50) it was 0.0015 µM; in assay [2], greater than 50 µM.
For `Cc1cc(COc2ccc(S(=O)(=O)N[C@H]3[C@@H](C(=O)NO)[C@@H]4C=C[C@H]3C4)cc2)c2ccccc2n1` (relative stereo) [Example 9, exo-N-Hydroxy-3-[({4-[(2-methylquinolin-4-yl)methoxy]phenyl}sulfonyl)amino]bicyclo[2.2.1] hept-5-ene-2-carboxamide], the IC50 at MMP-13 is greater than 16.7 µM; at recombinant human MMP-2, greater than 16.7 µM; in assay [1] (FRET, read-out: TACE IC50), 0.0001 µM; in assay [2], 9.3 µM.
As for `Cc1cc(COc2ccc(S(=O)(=O)N[C@@H]3CC=CC[C@@H]3C(=O)NO)cc2)c2ccccc2n1` (relative stereo) [Example 10, cis-N-hydroxy-6-[({4-[(2-methylquinolin-4-yl)methoxy]phenyl}sulfonyl)amino]cyclohex-3-ene-1-carboxamide], the IC50 against MMP-13 is greater than 16.7 µM; at recombinant human MMP-2 it was greater than 16.7 µM; in assay [1] (FRET, read-out: TACE IC50) it was 0.0011 µM; in assay [2], 4.2 µM.
As for `Cc1cc(COc2ccc(S(=O)(=O)N[C@@H]3CCCC[C@@H]3C(=O)NO)cc2)c2ccccc2n1` (relative stereo) [Example 12, cis-N-hydroxy-2-[({4-[(2-methylquinolin-4-yl)methoxy]phenyl}sulfonyl)amino]cyclohexanecarboxamide], the 50% inhibitory concentration (IC50) against MMP-13 is greater than 16.7 µM; in assay [3], 0.08 µM; at recombinant human MMP-2 it was greater than 16.7 µM; in assay [2], 2.2 µM.
Take `Cc1cc(COc2ccc(S(=O)(=O)N[C@@H]3CNC[C@@H]3C(=O)NO)cc2)c2ccccc2n1` (relative stereo) [Example 22, cis-N-Hydroxy4-[({4-[(2-methylquinolin-4-yl)methoxy]phenyl}sulfonyl)amino]pyrrolidine-3-carboxamide]: the IC50 against MMP-13 was greater than 16.7 µM; in assay [3], 0.09 µM; on recombinant human MMP-2, greater than 16.7 µM; in assay [2], 0.27 µM.
In the case of `Cc1cc(COc2ccc(S(=O)(=O)N(C)[C@H]3CCCC[C@@H]3C(=O)NO)cc2)c2ccccc2n1` (relative stereo) [Example 61, trans-N-hydroxy-2-[methyl({4-[(2-methylquinolin-4-yl)methoxy]phenyl}sulfonyl)amino]cyclohexanecarboxamide], the IC50 at MMP-13 is greater than 16.7 µM; in assay [3] it was 0.911 µM; on recombinant human MMP-2, greater than 16.7 µM; in assay [2], 43 µM.
Take `CN(C1C2CCC(C2)C1C(=O)NO)S(=O)(=O)c1ccc(OCc2ccc3ccccc3c2)cc1` (stereo in doubt) [Example 39, (1R,2S,3R,4S)-N-hydroxy-3-(methyl{[4-(2-naphthylmethoxy)phenyl]sulfonyl}amino)bicyclo[2.2.1]heptane-2-carboxamide]: in assay [1] (FRET, read-out: TACE IC50), the IC50 worked out at 0.172 µM.
As for `CN(C1C2CCC(C2)C1C(=O)NO)S(=O)(=O)c1ccc(OCc2ccc3nonc3c2)cc1` (stereo in doubt) [Example 40, (1R,2S,3R,4S)-3-[{[4-(2,1,3-benzoxadiazol-5-ylmethoxy)phenyl]sulfonyl}(methyl)amino]-N-hydroxybicyclo[2.2.1]heptane-2-carboxamide], the IC50 in assay [1] (FRET, read-out: TACE IC50) worked out at 0.056 µM.
In the case of `Cc1cc(COc2ccc(S(=O)(=O)NC3C(C(=O)NO)C4CCC3N4C(=O)OC(C)(C)C)cc2)c2ccccc2n1` (stereo not drawn) [Example 37, tert-Butyl 2-[(hydroxyamino)carbonyl]-3-[({4-[(2-methylquinolin-4-yl)methoxy]phenyl}sulfonyl)amino]-7-azabicyclo[2.2.1]heptane-7-carboxylate], the IC50 was greater than 16.7 µM against MMP-13; greater than 16.7 µM on recombinant human MMP-2; 0.01 µM in assay [1] (TACE IC50, FRET); 59 µM in assay [2].
On to `Cc1cc(COc2ccc(S(=O)(=O)NC3C4CCC(N4)C3C(=O)NO)cc2)c2ccccc2n1` (stereo not drawn) [Example 38, 3-[4-(2-Methyl-quinolin-4-ylmethoxy)-benzenesulfonylamino]-7-aza-bicyclo[2.2.1]heptane-2-carboxylic acid hydroxyamide], for which the IC50 was greater than 16.7 µM against MMP-13; 8.68 µM at recombinant human MMP-2; 0.051 µM in assay [1] (TACE IC50, FRET); 26 µM in assay [2].
For the compound `Cc1cc(COc2ccc(S(=O)(=O)N[C@@H]3CCC[C@]3(CO)C(=O)NO)cc2)c2ccccc2n1` [Example 58], the results for the IC50 in assay [3] and in assay [2] were 0.44 µM and 14 µM, respectively.

The record behind these values is patent US7595327B2, “Beta-sulfonamide hydroxamic acid inhibitors of tace/matrix metalloproteinase” (priority 2005, dated 2009).
